“And” between values parts separate entries of the source, which are not always exact repeats. Equal entries are not always repeated.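 The compound was tested at five concentrations on cells cultured in 96-well plates, with a 48-hour exposure period. At the GI50, growth is halved. The concentration for full growth arrest is given as TGI.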
Legend:
Experiment in all cases: inhibition of tumour cell growth, NCI panel, 48 h
HCC-2998 colon = system: HCC-2998 colon
HCT-15 colon = system: HCT-15 colon
HOP-92 NSCLC = system: HOP-92 NSCLC
NCI-H23 lung = system: NCI-H23 lung
HL-60(TB) leukemia = system: HL-60(TB) leukemia
OVCAR-5 ovarian = system: OVCAR-5 ovarian
OVCAR-3 ovarian = system: OVCAR-3 ovarian
SK-MEL-28 melanoma = system: SK-MEL-28 melanoma
T-47D breast = system: T-47D breast
MOLT-4 leukemia = system: MOLT-4 leukemia

Row | Structure (SMILES) | TGI (HCC-2998 colon) [µM] | TGI (HCT-15 colon) [µM] | TGI (HOP-92 NSCLC) [µM] | TGI (NCI-H23 lung) | TGI (HL-60(TB) leukemia) | TGI (OVCAR-5 ovarian) | TGI (OVCAR-3 ovarian) | TGI (SK-MEL-28 melanoma) | GI50 (HCC-2998 colon) | GI50 (HCT-15 colon) | GI50 (HOP-92 NSCLC) [µM] | GI50 (NCI-H23 lung) | GI50 (T-47D breast) [µM] | TGI (T-47D breast) [µM] | GI50 (OVCAR-5 ovarian) | GI50 (MOLT-4 leukemia) [µM] | TGI (MOLT-4 leukemia) [µM] | GI50 (OVCAR-3 ovarian) | GI50 (SK-MEL-28 melanoma) | GI50 (HL-60(TB) leukemia) [µM]
1 | COC(=O)C1CCc2c1c(=O)n1c([nH]c3ccccc31)c2C#N (centres undefined) | > 100 | > 100 | > 100 | > 100 µM | > 100 µM | > 100 µM | > 100 µM | > 100 µM |  |  |  |  |  |  |  |  |  |  |  | 
2 | COc1ccc(/C=C/C(=O)c2cc(OC)c(OC)c(OC)c2)cc1OCC(=O)Nc1nc2ccc(OC(F)(F)F)cc2s1 | 25.1 | 10.9 | 7.32 | 6.2 µM |  | 31.2 µM | 3.14 µM | 25.9 µM | 6.18 µM | 0.407 µM | 2.14 | 2.15 µM | 3.08 | 10.9 | 4.76 µM | 2.89 | > 100 | 1.52 µM | 3.31 µM | 
3 | COc1ccc(C(c2cc(OC)c(OC)c(OC)c2)n2ccnc2)cc1O (centres undefined) | > 100 | > 100 | > 100 | > 100 µM | 0.628 µM | > 100 µM | 0.857 µM |  | 1.72 µM | 0.464 µM | 28.6 | 0.882 µM |  |  | 0.648 µM | 0.565 | > 100 | 0.264 µM |  | 0.229
4 | COc1ccc(NC(=O)C(=O)c2c(O)c3ccc(O)cc3oc2=O)c([N+](=O)[O-])c1 | > 100 | > 100 | > 100 | > 100 µM | > 100 µM | > 100 µM | > 100 µM | > 100 µM |  |  |  |  |  |  |  |  | > 100 |  |  | 
5 | N#Cc1cc(C#N)c(N)nc1N | > 100 | > 100 | > 100 | > 100 µM | > 100 µM | > 100 µM | > 100 µM |  |  |  |  |  |  |  |  |  | > 100 |  |  | 
6 | COc1ccc(C/C(=N/O)C(=O)NCCc2cc(Br)c(OCCCN(C)C)c(Br)c2)cc1Br | 28.5 |  |  |  | 28.1 µM | 49.2 µM | 40.4 µM | 35.2 µM |  |  |  |  |  |  |  |  |  |  |  | 
7 | C[C@@H](NC1CCCC[C@H]1O)c1ccccc1 (some centres undefined) | > 100 | > 100 | > 100 | > 100 µM | > 100 µM |  | > 100 µM | > 100 µM |  |  |  |  |  |  |  |  | > 100 |  |  | 
8 | COC(=O)CC(NC(=O)OCc1ccccc1)C(C(C)=O)C(=O)OCc1ccccc1 (centres undefined) |  | > 31.6 | > 31.6 | > 31.6 µM | > 31.6 µM | > 100 µM | > 31.6 µM | > 31.6 µM |  |  |  |  |  |  |  |  | > 31.6 |  |  | 
9 | O=C(c1ccccc1)c1c(CC(O)c2ccccn2)n(C(=O)c2ccccc2)c2ccccc12 (centres undefined) | 67.7 | 88.1 | 57.5 | 56.3 µM |  | 52.7 µM | 68.4 µM | 39.6 µM |  |  |  |  |  |  |  |  | 63.6 |  |  | 
10 | CC1=Nc2ccccc2S/C1=C(/C)NNS(=O)(=O)c1ccc(C)cc1 | > 100 | > 100 | > 100 | > 100 µM | > 100 µM | > 100 µM | > 100 µM | > 100 µM |  |  |  |  |  |  |  |  | > 100 |  |  | 
11 | COc1cc2c(cc1OC)[C@@H](Nc1ccc(C#N)cc1)C1COC(=O)[C@@H]1C2c1cc(OC)c(O)c(OC)c1 (some centres undefined) |  |  |  | 1.47 µM and 0.257 µM | 0.0606 µM and 0.192 µM | 95 µM and > 100 µM | 20 µM and 28.4 µM | 95 µM and > 100 µM | 0.665 µM and 2.72 µM | 0.91 µM and 1.39 µM |  | 0.159 µM and 0.0337 µM |  | > 100 | 0.545 µM and 2.05 µM |  |  | 3.26 µM and 5.65 µM | 3.4 µM and 6.94 µM | 
12 | CCN(CC)C(=O)Cc1c(C(=O)N(CC)CC)c(=O)nc2sccn12 | > 100 | > 100 | > 100 | > 100 µM | > 100 µM |  | > 100 µM | > 100 µM |  |  |  |  |  |  |  |  | > 100 |  |  | 
13 | CCOC(=O)/C(=C/N1CCN(C(=O)c2ccco2)C1=S)C(=O)c1ccccc1 |  | 18.5 | > 50 | 14.7 µM | 31 µM |  | > 50 µM | > 50 µM |  | 6.33 µM | 23 | 7.7 µM | 4.08 | > 50 |  | 19.6 | > 50 | 20.2 µM | 22.2 µM | 14.9
14 | CC(C)(O)[C@@H]1CC[C@@]2(C)CCCC(O)C2(O)C1 (some centres undefined) | > 100 | > 100 | > 100 | > 100 µM | > 100 µM | > 100 µM | > 100 µM | > 100 µM |  |  |  |  |  |  |  |  | > 100 |  |  | 
15 | CC(C)(C)c1ccc(S(=O)(=O)Oc2ccc3c4c(c(=O)oc3c2)CCCCC4)cc1 | > 100 | > 100 | 12.2 | > 100 µM |  | > 100 µM | > 100 µM | > 100 µM | > 100 µM | 7.92 µM | 1.22 | 13.5 µM | 5.17 | > 100 | 37 µM | > 100 | > 100 | 18.4 µM | 24.1 µM | 
16 | CCC(C)CCOC(=O)c1ccc(N=Cc2ccc(C=Nc3ccc(C(=O)OCCC(C)CC)cc3)cc2)cc1 (centres undefined) | > 100 | > 100 | > 100 | > 100 µM | > 100 µM | > 100 µM | > 100 µM | > 100 µM |  |  |  |  |  |  |  |  | > 100 |  |  | 
17 | Cc1c(Cl)cccc1NC(=O)C(=O)C(C(=O)c1ccccc1-c1ccccc1)C1OC(=O)c2ccccc21 (centres undefined) | 31.2 |  | 34.4 | 30.3 µM | 49.8 µM | 46.9 µM | 33.8 µM | 44.7 µM |  |  |  |  |  |  |  |  | 57.8 |  |  | 
18 | Cn1cc(C(=O)c2ccccc2)c2ccccc2c1=O | > 100 | > 100 | > 100 |  | > 100 µM |  | > 100 µM | > 100 µM |  |  |  |  |  |  |  |  | > 100 |  |  | 
19 | COc1ccc(C2=C(Cl)c3cc(OC)c(OC)cc3C2OC)cc1OC (centres undefined) | > 100 | > 100 | > 100 | > 100 µM | > 100 µM | > 100 µM |  | > 100 µM |  |  |  |  |  |  |  |  | > 100 |  |  | 
20 | O=C(NCCCCCCCCCCCCNC(=O)c1cccc2ccccc12)c1cccc2ccccc12 | > 100 | > 100 | > 72.1 | > 100 µM | > 80.1 µM | > 100 µM | > 67.6 µM | > 100 µM |  |  |  |  |  |  |  |  | > 100 |  |  | 
21 | O=C1NC(Cc2ccc(O)cc2)C(=O)N2CCCC12 (centres undefined) | > 100 | > 100 | > 100 |  | > 100 µM | > 100 µM | > 100 µM | > 100 µM |  |  |  |  |  |  |  |  | > 100 |  |  | 
